These are literature values, as cited in patent publication US20080104001A1, “ALGORITHM FOR ESTIMATION OF BINDING EQULIBRIA IN INCLUSION COMPLEXATION, HOST COMPOUNDS IDENTIFIED THEREBY AND COMPOSITIONS OF HOST COMPOUND AND PHARMACEUTICAL” (priority 2006, published 2008).

For series [1] the following is noted: by itself, without cyclodextrin.
For series [2] the following is noted: training set; published stability constants (Connors, 1995).

As to `CCC(C)n1ncn(-c2ccc(N3CCN(c4ccc(OCC5COC(Cn6cncn6)(c6ccc(Cl)cc6Cl)O5)cc4)CC3)cc2)c1=O` (centres unmarked) [itraconazole], the aqueous solubility entry in series [1] is “less than 0.1 microgram/mL”. As to `Cc1cccc2ccccc12` [1-methylnaphthalene], in series [2], the “Log K(1:1)” value was 2.64. Regarding `Oc1ccccc1O` [1,2-benzenediol], the “Log K(1:1)” value in series [2] is 2.04.

On to `C=CCC1(C(C)CCC)C(=O)NC(=O)NC1=O` (centres unmarked) [Secobarbital], for which the “Log K(1:1)” value in series [2] is 3.26. Consider `O=C(O)C12CC3CC(CC(C3)C1)C2` [1-adamantanecarboxylic-acid], for which, in series [2], the “Log K(1:1)” value is listed as 5.81.
